Laboratory results: ChEMBL document CHEMBL1130408, “Repromicin derivatives with potent antibacterial activity against Pasteurella multocida” (1997)
Values after ≈ are worked out from the molar mass of the structure shown.

Experiments:
Mus musculus = species: Mus musculus; test: Protected dose which protects 50% of challenged mice from death owing to the Pasteurella multocida (59A006) infection; type: functional; details: read-out: PD50
Pasteurella multocida = test: Minimum inhibitory concentration required to inhibit Pasteurella multocida 59A006 in vitro; type: functional

SMILES: CC[C@H]1OC(=O)CC(O)[C@H](C)[C@@H](O[C@@H]2O[C@H](C)C[C@H](N(C)C)[C@H]2O)[C@@H](CCN2CCCC2)C[C@@H](C)C(=O)/C=C/[C@]2(C)O[C@H]2[C@@H]1C (stereo not given in full)
- ED50 (Mus musculus): > 150 mg/kg
- MIC (Pasteurella multocida): 0.78 µg/mL (≈ 1.22 µM)

SMILES: CC[C@H]1OC(=O)CC(O)[C@H](C)[C@@H](O[C@@H]2O[C@H](C)C[C@H](N(C)C)[C@H]2O)[C@@H](CCN2CCOCC2)C[C@@H](C)C(=O)/C=C/C(C)=C/[C@@H]1C (stereo not given in full)
- ED50 (Mus musculus): > 150 mg/kg
- MIC (Pasteurella multocida): 0.78 µg/mL (≈ 1.22 µM)

SMILES: CC[C@H]1OC(=O)CC(O)[C@H](C)[C@@H](O[C@@H]2O[C@H](C)C[C@H](N(C)C)[C@H]2O)[C@@H](CCNC(CO)CO)C[C@@H](C)C(=O)/C=C/C(C)=C/[C@@H]1C (stereo not given in full)
- ED50 (Mus musculus): 31 mg/kg
- MIC (Pasteurella multocida): 0.39 µg/mL (≈ 0.609 µM)

SMILES: CC[C@H]1OC(=O)CC(O)[C@H](C)[C@@H](O[C@@H]2O[C@H](C)C[C@H](N(C)C)[C@H]2O)[C@@H](CCN(C)CC)C[C@@H](C)C(=O)/C=C/C(C)=C/[C@@H]1C (stereo not given in full)
- ED50 (Mus musculus): 150 mg/kg
- MIC (Pasteurella multocida): 0.2 µg/mL (≈ 0.328 µM)

SMILES: CC[C@H]1OC(=O)CC(O)[C@H](C)[C@@H](O[C@@H]2O[C@H](C)C[C@H](N(C)C)[C@H]2O)[C@@H](CCNCCCN(C)C)C[C@@H](C)C(=O)/C=C/C(C)=C/[C@@H]1C (stereo not given in full)
- ED50 (Mus musculus): 5 mg/kg
- MIC (Pasteurella multocida): 0.39 µg/mL (≈ 0.598 µM)

SMILES: CC[C@H]1OC(=O)CC(O)[C@H](C)[C@@H](O[C@@H]2O[C@H](C)C[C@H](N(C)C)[C@H]2O)[C@@H](CCN(C)C)C[C@@H](C)C(=O)/C=C/[C@]2(C)O[C@H]2[C@@H]1C (stereo not given in full)
- ED50 (Mus musculus): > 150 mg/kg
- MIC (Pasteurella multocida): 0.39 µg/mL (≈ 0.638 µM)

SMILES: CC[C@H]1OC(=O)CC(O)[C@H](C)[C@@H](O[C@@H]2O[C@H](C)C[C@H](N(C)C)[C@H]2O)[C@@H](CCN2CC(O)C2)C[C@@H](C)C(=O)/C=C/C(C)=C/[C@@H]1C (stereo not given in full)
- ED50 (Mus musculus): 19 mg/kg
- MIC (Pasteurella multocida): 0.2 µg/mL (≈ 0.321 µM)

SMILES: CC[C@H]1OC(=O)CC(O)[C@H](C)[C@@H](O[C@@H]2O[C@H](C)C[C@H](N(C)C)[C@H]2O)[C@@H](CCN(C)CCCN(C)C)C[C@@H](C)C(=O)/C=C/C(C)=C/[C@@H]1C (stereo not given in full)
- ED50 (Mus musculus): 26 mg/kg
- MIC (Pasteurella multocida): 0.1 µg/mL (≈ 0.15 µM)

SMILES: CC[C@H]1OC(=O)CC(O)[C@H](C)[C@@H](O[C@@H]2O[C@H](C)C[C@H](N(C)C)[C@H]2O)[C@@H](CCN2CCC2)C[C@@H](C)C(=O)/C=C/C(C)=C/[C@@H]1C (stereo not given in full)
- ED50 (Mus musculus): 46 mg/kg
- MIC (Pasteurella multocida): 0.2 µg/mL (≈ 0.33 µM)

SMILES: CC[C@H]1OC(=O)CC(O)[C@H](C)[C@@H](O[C@@H]2O[C@H](C)C[C@H](N(C)C)[C@H]2O)[C@@H](CCN(C)CCO)C[C@@H](C)C(=O)/C=C/C(C)=C/[C@@H]1C (stereo not given in full)
- ED50 (Mus musculus): 45 mg/kg
- MIC (Pasteurella multocida): 0.2 µg/mL (≈ 0.32 µM)

SMILES: CC[C@H]1OC(=O)CC(O)[C@H](C)[C@@H](O[C@@H]2O[C@H](C)C[C@H](N(C)C)[C@H]2O)[C@@H](CCN(CC)CC)C[C@@H](C)C(=O)/C=C/C(C)=C/[C@@H]1C (stereo not given in full)
- ED50 (Mus musculus): 141 mg/kg
- MIC (Pasteurella multocida): 0.39 µg/mL (≈ 0.626 µM)

SMILES: CCC1OC(=O)CC(O)C(C)C(O[C@@H]2O[C@H](C)C[C@H](N(C)C)[C@H]2O)C(CC=O)CC(C)C(=O)/C=C/C(C)=C/C1C (stereo not given in full)
- ED50 (Mus musculus): > 200 mg/kg
- MIC (Pasteurella multocida): 0.39 µg/mL (≈ 0.689 µM)

SMILES: CC[C@H]1OC(=O)CC(O)[C@H](C)[C@@H](O[C@@H]2O[C@H](C)C[C@H](N(C)C)[C@H]2O)[C@@H](CCN(C)CCCNC)C[C@@H](C)C(=O)/C=C/C(C)=C/[C@@H]1C (stereo not given in full)
- ED50 (Mus musculus): 4 mg/kg
- MIC (Pasteurella multocida): 0.78 µg/mL (≈ 1.2 µM)

SMILES: CC[C@H]1OC(=O)CC(O)[C@H](C)[C@@H](O[C@@H]2O[C@H](C)C[C@H](N(C)C)[C@H]2O)[C@@H](CCN(CC)CC)C[C@@H](C)C(=O)/C=C/[C@]2(C)O[C@H]2[C@@H]1C (stereo not given in full)
- ED50 (Mus musculus): 123 mg/kg
- MIC (Pasteurella multocida): 0.78 µg/mL (≈ 1.22 µM)

SMILES: CC[C@H]1OC(=O)CC(O)[C@H](C)[C@@H](O[C@@H]2O[C@H](C)[C@@H](O)[C@H](N(C)C)[C@H]2O)[C@@H](CCNCCCN(C)C)C[C@@H](C)C(=O)/C=C/C(C)=C/[C@@H]1CO[C@@H]1O[C@H](C)[C@@H](O)[C@@H](OC)[C@H]1OC (stereo not given in full)
- MIC (Pasteurella multocida): 12.5 µg/mL (≈ 14.6 µM)

SMILES: CC[C@H]1OC(=O)CC(O)[C@H](C)[C@@H](O[C@@H]2O[C@H](C)[C@@H](O)[C@H](N(C)C)[C@H]2O)[C@@H](CCN(C)CCCNC)C[C@@H](C)C(=O)/C=C/C(C)=C/[C@@H]1CO[C@@H]1O[C@H](C)[C@@H](O)[C@@H](OC)[C@H]1OC (stereo not given in full)
- MIC (Pasteurella multocida): 25 µg/mL (≈ 29.1 µM)
